Experiments:
Assay type in all cases: in vivo
[1] = tested on: Bemisia argentifolii; assay: B.3 Silverleaf whitefly, adult, spray test on cotton plants; conditions: for mortality at 100 ppm / mortality at 1 ppm / mortality at 3 ppm: read-out: % mortality in comparison to untreated controls; for mortality at 10 ppm: 72 h, 3 days after treatment, read-out: mortality in comparison with untreated controls
Experimental: B.3 Silverleaf Whitefly (Bemisia argentifolii, Adult)
(§1) The active compounds were formulated in cyclohexanone as a 10,000 ppm solution supplied in 1.3 ml ABgene® tubes. These tubes were inserted into an automated electrostatic sprayer equipped with an atomizing nozzle and they served as stock solutions for which lower dilutions were made in 1:1 (vol:vol) water:aceton. A nonionic surfactant (Kinetic®) was included in the solution at a volume of 0.01% (v/v).
Cotton plants at the cotyledon stage (one plant per pot) were sprayed by an automated electrostatic plant sprayer equipped with an atomizing spray nozzle. The plants were dried in the sprayer fume hood and then removed from the sprayer. Each pot was placed into a plastic cup and 10 to 12 whitefly adults (approximately 3-5 days old) were introduced. The insects were collected using an aspirator and 0.6 cm, nontoxic Tygon® tubing (R-3603) connected to a barrier pipette tip. The tip, containing the collected insects, was then gently inserted into the soil containing the treated plant, allowing insects to crawl out of the tip to reach the foliage for feeding. Cups were covered with a reusable screened lid (150-micron mesh polyester screen PeCap from Tetko, Inc.). Test plants were maintained in a growth room at 25° C. and 20-40% relative humidity for 3 days, avoiding direct exposure to fluorescent light (24 hour photoperiod) to prevent trapping of heat inside the cup. Mortality was assessed 3 days after treatment, compared to untreated control plants.

[2] = tested on: Myzus persicae; assay: B.5 Green peach aphid spray test on bell pepper plants; conditions: for mortality at 10 ppm: 120 h, after 5 days, read-out: mortality in comparison with untreated controls; for mortality at 0.1 ppm: read-out: % mortality in comparison to untreated controls
Experimental: B.5 Green Peach Aphid (Myzus persicae)
as §1
Bell pepper plants at the first true-leaf stage were infested prior to treatment by placing heavily infested leaves from the main colony on top of the treatment plants. Aphids were allowed to transfer overnight to accomplish an infestation of 30-50 aphids per plant and the host leaves were removed. The infested plants were then sprayed by an automated electrostatic plant sprayer equipped with an atomizing spray nozzle. The plants were dried in the sprayer fume hood, removed, and then maintained in a growth room under fluorescent lighting in a 24 hour photoperiod at 25° C. and 20-40% relative humidity. Aphid mortality on the treated plants, relative to mortality on untreated control plants, was determined after 5 days.

[3] = tested on: Aphis gossypii; assay: B.2 Cotton aphid, mixed life stages, spray test on cotton plants; conditions: for mortality at 3 ppm / mortality at 0.1 ppm: read-out: % mortality in comparison to untreated controls; for mortality at 10 ppm: 120 h, after 5 days, read-out: mortality in comparison with untreated controls
Experimental: B.2 Cotton Aphid (Aphis gossypii, Mixed Life Stages)
as §1
Cotton plants at the cotyledon stage were infested with aphids prior to treatment by placing a heavily infested leaf from the main aphid colony on top of each cotyledon. Aphids were allowed to transfer overnight to accomplish an infestation of 80-100 aphids per plant and the host leaf was removed. The infested plants were then sprayed by an automated electrostatic plant sprayer equipped with an atomizing spray nozzle. The plants were dried in the sprayer fume hood, removed from the sprayer, and then maintained in a growth room under fluorescent lighting in a 24-hr photoperiod at 25° C. and 20-40% relative humidity. Aphid mortality on the treated plants, relative to mortality on untreated control plants, was determined after 5 days.

[4] = tested on: Aphis craccivora; assay: B.1 Cowpea aphid spray test on potted cowpea plants; conditions: for mortality at 0.3 ppm: read-out: % mortality in comparison to untreated controls; for mortality at 500 ppm: population reduction assessed after 24, 72 and 120 hours, read-out: mortality in comparison with untreated controls
Experimental: If not otherwise specified the test solutions were prepared as follows:
The active compound was dissolved at the desired concentration in a mixture of 1:1 (vol:vol) distilled water:aceton. The test solution was prepared at the day of use and in general at concentrations of ppm (wt/vol).
B.1 Cowpea Aphid (Aphis craccivora)
Potted cowpea plants colonized with 100-150 aphids of various stages were sprayed after the pest population had been recorded. Population reduction was assessed after 24, 72, and 120 hours.

[5] = tested on: Megoura viciae; assay: B.4 Vetch aphid bean leaf disk microtiter test; conditions: foliar, 144 h, 6 days, read-out: mortality in comparison with untreated controls
Experimental: B.4 Vetch Aphid (Megoura viciae)
The active compounds were formulated in 3:1 (vol:vol) water:DMSO with different concentrations of formulated compounds.
Bean leaf disks were placed into microtiterplates filled with 0.8% agar-agar and 2.5 ppm OPUS™. The leaf disks were sprayed with 2.5 μl of the test solution and 5 to 8 adult aphids were placed into the microtiter plates which were then closed and kept at 23±1° C. and 50±5% relative humidity under fluorescent light for 6 days. Mortality was assessed on the basis of vital, reproduced aphids. Aphid mortality and fecundity was then visually assessed.

[6] = tested on: Nephotettix virescens; assay: B.9 Rice green leafhopper spray test on rice seedlings; conditions: 72 h, after 72 hours, read-out: mortality in comparison with untreated controls
Experimental: B.9 Rice Green Leafhopper (Nephotettix virescens)
Rice seedlings were cleaned and washed 24 hours before spraying. The active compounds were formulated in 1:1 (vol:vol) water:aceton, and 0.1% vol/vol surfactant (EL 620) was added. Potted rice seedlings were sprayed with 5 ml test solution, air dried, placed in cages and inoculated with 10 adults. Treated rice plants were kept at 28-29° C. and relative humidity of 50-60%. Percent mortality was recorded after 72 hours.

[7] = tested on: Dichromothrips corbetti; assay: B.8 Orchid thrips petal dip test; conditions: 72 h, after 72 hours, read-out: mortality in comparison with untreated controls
Experimental: B.8 Orchid Thrips (Dichromothrips corbetti)
The active compounds were formulated as a 1:1 (vol:vol) water:aceton solution. Surfactant (Alkamuls EL 620) was added at the rate of 0.1% (vol/vol). Vanda orchids petals were cleaned, washed and air dried prior to spraying. Petals were dipped into the test solution for 3 seconds, air dried, placed inside a resealable plastic and inoculated with 20 adults. The treated petals were kept inside the holding room at 28-29° C. and relative humidity of 50-60%. Percent mortality was recorded after 72 hours.

[8] = tested on: Plutella xylostella; assay: B.10 Diamondback moth cabbage leaf disk dip test; conditions: 500 ppm; 72 h
Experimental: B.10 Diamondback Moth (Plutella xylostella)
The active compounds were formulated in 1:1 (vol:vol) water:aceton and 0.1% (vol/vol) Alkamuls EL 620 surfactant. A 6 cm leaf disk of cabbage leaves was dipped in the test solution for 3 seconds and allowed to air dry in a Petri plate lined with moist filter paper. The leaf disk was inoculated with 10 third instar larvae and kept at 25-27° C. and 50-60% humidity for 3 days. Mortality was assessed after 72 h of treatment.

[9] = tested on: Anthonomus grandis; assay: B.6 Boll weevil insect diet microtiter test; conditions: 120 h, egg and larval mortality, 5 days, read-out: mortality in comparison with untreated controls
Experimental: B.6 Boll Weevil (Anthonomus grandis)
The compounds were formulated in 3:1 (vol:vol) water:DMSO.
For evaluating control of boll weevil (Anthonomus grandis) the test unit consisted of 24-well-microtiter plates containing an insect diet and 20-30 A. grandis eggs. Different concentrations of formulated compounds were sprayed onto the insect diet at 20 μl, using a custom built micro atomizer, at two replications. After application, the microtiter plates were incubated at 23±1° C. and 50±5% relative humidity for 5 days. Egg and larval mortality was then visually assessed.

SMILES	mortality at 10 ppm [2] [%]	mortality at 10 ppm [3] [%]	mortality at 1 ppm [1] [%]	mortality at 10 ppm [1] [%]	mortality at 0.3 ppm [4] [%]	mortality at 500 ppm [4] [%]	mortality at 2500 ppm [5] [%]	also measured
CCn1ncc(C(=O)N(C)c2cccnc2)c1C [#180 in WO09/0027393, reference compound]								mortality at 100 ppm [1]: 0%
Cc1c(C(=O)Nc2ccnnc2)cnn1C(C)(C)C#N [I-32]	≥ 75	≥ 75	100	≥ 75	100	≥ 75	≥ 75	mortality at 3 ppm [3]: 90%; mortality at 500 ppm [6]: ≥ 75%
Cc1c(C(=O)Nc2ccnnc2)cnn1C(C(F)(F)F)C(F)(F)F [I-34, 5-methyl-1-(2,2,2-trifluoro-1-trifluoromethyl-ethyl)-1H-pyrazole-4-carboxylic acid pyridazin-4-ylamide]	≥ 75					≥ 75	≥ 75	
Cc1c(C(=O)N(C)c2cccnc2)cnn1CC(F)(F)F [#173 in WO09/027393, reference compound]	50			25				
CCN(C(=O)c1cnn(C(C)C(F)F)c1C)c1ccnnc1 (centres unmarked) [I-201]	≥ 75	≥ 75	100	≥ 75		≥ 75		mortality at 500 ppm [7]: ≥ 75%
Cc1c(C(=O)Nc2ccnnc2)cnn1C(C)C [#5 of Table 14 in WO10/034737, reference compound]			0					mortality at 500 ppm [6]: 0%
CCN(C(=O)c1cnn(C(C)C2(C#N)CC2)c1C)c1ccnnc1 (centres unmarked) [I-198]	≥ 75	≥ 75	100	≥ 75		≥ 75		mortality at 500 ppm [7]: ≥ 75%
Cc1c(C(=O)Nc2ccnnc2)cnn1C(C)(C)C [#7 of Table 14 in WO10/034737, reference compound]					0			mortality at 3 ppm [3]: 25%
CCN(C(=O)c1cnn(C(C)C)c1C)c1ccnnc1 [#5 of Table 98 in WO10/034737, reference compound]			0					mortality at 3 ppm [1]: 0%; mortality at 500 ppm [7]: 0%; feeding damage (FD) [8]: 100%
CCN(C(=O)c1cnn(CC(C)C)c1C)c1ccnnc1 [#175 in WO10/034737, reference compound]					0			mortality at 0.1 ppm [2]: 0%; mortality at 0.1 ppm [3]: 0%
Cc1c(C(=O)N(C)c2cccnc2)cnn1C(C)C(F)(F)F (centres unmarked) [I-377]		≥ 75		≥ 75		≥ 75	≥ 75	mortality at 2500 ppm [9]: ≥ 75%; mortality at 100 ppm [1]: 100%
Cc1c(C(=O)N(C)c2ccnnc2)cnn1C(C(F)(F)F)C(F)(F)F [I-38, N,5-dimethyl-N-pyridazin-4-yl-1-[2,2,2-trifluoro-1-(trifluoromethyl)ethyl]pyrazole-4-carboxamide]	≥ 75	≥ 75				≥ 75	≥ 75	
CCN(C(=O)c1cnn(C(C)C(C)C)c1C)c1ccnnc1 (centres unmarked) [I-98]	≥ 75	≥ 75		≥ 75	75	≥ 75	≥ 75	mortality at 0.1 ppm [2]: 95%; mortality at 2500 ppm [9]: ≥ 75%; mortality at 0.1 ppm [3]: 95%; mortality at 3 ppm [1]: 75%; feeding damage (FD) [8]: 25%
